Test results reported in patent US11331301B2, “Compositions and methods for treating cancer” (The State of Israel, Ministry of Agriculture & Rural …, priority 2017, dated 2022).

Legend:
Assay type in all cases: cell-based
[1] = tested on: HCT116 cells; experiment: Cytotoxic activity with CB1, CB2 and GPR55 receptor antagonists, Alamar Blue; details: THCA 0.12 mM
Description: FIGS. 12A-C depict the determination of HCT116 cell viability using Alamar Blue fluorescence (Resazurin assay) as a function of cytotoxic effect. HCT116 cells were seeded (50,000 per well) in triplicate in 500 μL growing media and incubated for 24 h at 37° C. in a humidified 5% CO2-95% air atmosphere. […] Non-treated are the cells without TNF-α and treatments. Relative fluorescence at the excitation/emission of 544/590 nm was measured. Values were calculated as percentage of live cells relative to the non-treated (cells without TNF-α and treatments) control after reducing the autofluorescence of Alamar Blue without cells.
FIG. 12D depicts determination of HCT116 cell viability using Alamar Blue fluorescence (resazurin assay) as a function of cytotoxic effect. HCT116 cells were seeded (50,000 per well) in triplicate in 500 μL growing media and incubated for 24 hours at 37° C. in a humidified 5% CO2-95% air atmosphere. […] Treatments with F7, F1-F9, and combination of fractions without antagonists served as a positive control (Con). Non-treated are the cells without TNF-α and treatments. […] Relative fluorescence at the excitation/emission of 544/590 nm was measured. Values were calculated as percentage of live cells relative to the non-treated (cells without TNF-α and treatments) control after reducing the autofluorescence of Alamar Blue without cells. […]

[2] = tested on: CB1; experiment: Relative gene expression by qPCR after TNF-α; details: HCT-116; overnight TNF-α; versus GAPDH, 2-ΔΔCT; treated versus non-treated cells
Description: (§1) Transcripts for CB1, CB2 and GPR55 were detected by qPCR in HCT116 cells.

[3] = tested on: CB2; experiment: Relative gene expression by qPCR after TNF-α; details: HCT-116; overnight TNF-α; versus GAPDH, 2-ΔΔCT; treated versus non-treated cells
Description: as §1

[4] = tested on: GPR55; experiment: Relative gene expression by qPCR after TNF-α; details: HCT-116; overnight TNF-α; versus GAPDH, 2-ΔΔCT; treated versus non-treated cells
Description: as §1

Molecule	effect of CB2 antagonist (SR144528) on cytotoxic activity ([1]; C2F 0.2 mg/mL, F7 0.08 mg/mL)	effect of CB1 antagonist (Rimonabant) on cytotoxic activity [1]	Mean relative expression of CB1 [2]	Mean relative expression of CB2 [3]	Mean relative expression of GPR55 [4]
CCCCCc1cc2c(c(O)c1C(=O)O)[C@@H]1C=C(C)CC[C@H]1C(C)(C)O2 [THCA, tetrahydrocannabinolic acid]	significant reduction in cytotoxic activity	significant reduction in cell cytotoxic activities			
TNF-α			1.31	5.84	5.26
